Data: PubChem BioAssay (NCI)
Several values for one entry are separate records, joined by “and”; a condition that tells them apart may be missing. Equal values may be shown once.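 Test compounds were applied to cells in 96-well plates for 48 hours at 5 doses. GI50 marks 50% less growth. The concentration for full growth arrest is given as TGI.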

What was measured:
Experiment in all cases: NCI tumour cell line growth inhibition, 48 h
DLD-1 colon = test system: DLD-1 colon
DMS 114 small cell lung = test system: DMS 114 small cell lung
HOP-18 NSCLC = test system: HOP-18 NSCLC
LXFL 529 NSCLC = test system: LXFL 529 NSCLC
M19-MEL melanoma = test system: M19-MEL melanoma
RXF-631 renal = test system: RXF-631 renal
SNB-78 CNS = test system: SNB-78 CNS
XF 498 CNS = test system: XF 498 CNS
MDA-N = test system: MDA-N
P388 leukemia = test system: P388 leukemia
P388/ADR leukemia = test system: P388/ADR leukemia
SN12K1 renal = test system: SN12K1 renal

SMILES	TGI (DLD-1 colon) [µM]	TGI (DMS 114 small cell lung) [µM]	TGI (HOP-18 NSCLC) [µM]	TGI (LXFL 529 NSCLC) [µM]	TGI (M19-MEL melanoma) [µM]	TGI (SNB-78 CNS) [µM]	TGI (XF 498 CNS) [µM]	other results
CCC(C)(C)C(=O)O[C@H]1C[C@@H](C)C=C2C=C[C@H](C)[C@H](CC[C@@H]3C[C@@H](O)CC(=O)O3)[C@H]21	> 30	> 30	> 30	> 30	> 30	> 30	> 30	TGI (RXF-631 renal): > 30 µM
COC(=O)NC1C(C)OC(OC2C/C=C(/C)C3C=CC4C(OC5CC(OC6CC(O)C(OC7CC(O)C(OC)C(C)O7)C(C)O6)C(O)C(C)O5)C(C)CC(C)C4C3(C)/C(O)=C3\C(=O)OC4(CC(C)C(CO)=CC4/C=C\2C)C3=O)CC1(C)[N+](=O)[O-] (stereo not given)	40.4	11.5	31.4	9.19	13.1	29.8	27	TGI (MDA-N): 19.5 µM; TGI (P388 leukemia): 17.4 µM; TGI (P388/ADR leukemia): 98.1 µM; TGI (RXF-631 renal): 41.7 µM; TGI (SN12K1 renal): 22.6 µM
O=c1cccccc1NCCOCCNc1cccccc1=O	> 100	> 100	> 100	> 100	> 100	> 100		
COc1ccc(C(=O)C(c2ccc(OC)cc2)C2(O)C(=O)Nc3ccccc32)cc1 (stereo not given)	> 100			> 100	> 100	> 100	> 100	TGI (RXF-631 renal): > 100 µM
O=c1/c(=C/c2cccc([N+](=O)[O-])c2)sc2nc3ccccc3n12	> 100	> 100		> 100	> 100	> 100	> 100	
Cc1cc(O)cc2oc(=O)c3c(O)cc(O)cc3c12	> 100	86.1	> 100	> 100	> 100	> 100	59.3	
COC(=O)C1=C(O)c2cc(OC)c(OC)c(OC)c2[C@H](c2cc(OC)c(OC)c(OC)c2)C1C(=O)OC (stereo not given in full)	> 100	87.7		> 100		> 100	> 100	TGI (RXF-631 renal): 97.2 µM
CCOC(=O)/C(O)=C(/c1n[nH]c(=O)c2ccccc12)[N+](=O)[O-]	> 100	> 100	> 100	> 100	> 100	> 100		
CC1(C)COC(C23C4C5C2C2C3C4C52I)=N1 (stereo not given)	> 100	> 100	> 100	> 100	> 100	> 100	> 100	
[O-]c1c2c(nn1-c1ccccc1)c1ccccc1c[n+]2Cc1ccccc1	> 100	> 100	> 100	> 100	> 100	> 100	> 100	TGI (RXF-631 renal): > 100 µM
CC(=O)[CH-]C(=O)c1ccccc1.CC(=O)[CH-]C(=O)c1ccccc1.CC[O-].CC[O-].[Zr+4]	> 100		> 100	> 100				GI50 (DLD-1 colon): > 100 µM; GI50 (HOP-18 NSCLC): > 100 µM; GI50 (LXFL 529 NSCLC): > 100 µM
CCCCCCCCCCCCCC(=O)O[C@H]1CC[C@H](NC(=O)[C@H](OC)[C@H](O)[C@@H](O)[C@H](O)/C=C/C(C)C)C(=O)NC1			> 51.2	7.26	8.23		0.305	GI50 (DMS 114 small cell lung): < 0.001 µM; GI50 (HOP-18 NSCLC): > 51.2 µM; GI50 (LXFL 529 NSCLC): 0.00512 µM; GI50 (M19-MEL melanoma): 0.0245 µM; GI50 (MDA-N): 0.0165 µM; TGI (MDA-N): 44.7 µM and 12.1 µM
O=S(=O)(O)O.[NH-]C1CCCCC1[NH-].[Pt+2] (stereo not given)	> 100			> 100	> 100	> 100		GI50 (DLD-1 colon): 27.8 µM; GI50 (LXFL 529 NSCLC): > 100 µM; GI50 (M19-MEL melanoma): > 100 µM; GI50 (SNB-78 CNS): > 100 µM
O=S1c2ccccc2N=C(c2ccc3ccccc3c2)CC1C1=CC=CCC1 (stereo not given)	26	33.3	> 100	29.7	31.2		31.6	TGI (RXF-631 renal): 37 µM
Cc1cc(NS(=O)(=O)c2ccc(N=Nc3cc(N=Nc4ccc(S(=O)(=O)Nc5cc(C)nc(C)n5)cc4)c4c(NC(=O)C(Cl)Cl)cccc4c3OC(=O)C(Cl)Cl)cc2)nc(C)n1 (tested in a mixture with another compound)	33.4	> 100	34.1		> 100	> 100		
Cc1c(Cl)ccc2c1NC(=O)C2(O)C(C(=O)c1ccccc1)c1ccccc1 (stereo not given)	> 100	44.2	> 100	> 100	30.6	> 100	96.9	TGI (RXF-631 renal): > 100 µM
Cc1ccc(NC(=O)C(=O)C2C(=O)N(c3ccccc3)N=C2N)cc1C (stereo not given)	> 100	> 100	> 100	> 100	> 100	> 100	> 100	TGI (RXF-631 renal): > 100 µM
Cc1[nH]c2ccccc2c1C1Cc2ccccc2N1C(=O)/C=C/C=C/c1ccccc1 (stereo not given)	> 100	> 100		> 100	> 100	> 100		
CC1=NN(c2ccccc2)C(=O)C1N=Nc1ccc([As](=O)(O)O)c(O)c1 (stereo not given)								TGI (MDA-N): > 100 µM

SMILES	TGI (DLD-1 colon) [µM]	TGI (DMS 114 small cell lung) [µM]	TGI (HOP-18 NSCLC) [µM]	TGI (LXFL 529 NSCLC) [µM]	TGI (M19-MEL melanoma) [µM]	TGI (SNB-78 CNS) [µM]	TGI (XF 498 CNS) [µM]	other results
COc1cc(/C=C2/C(=O)N(C(=O)OC(C)C)C(Cc3cc(OC)c(OC)c(C)c3OC)C(=O)N2Cc2ccccc2)c(OC)c(C)c1OC (stereo not given)	> 100	> 100	> 100	> 100	> 100			
COc1ccc(C(=O)OCC2OC(n3cnc4c(=S)nc[nH]c43)C(OC(=O)c3ccc(OC)cc3)C2OC(=O)c2ccc(OC)cc2)cc1 (stereo not given)	> 100	> 100		> 100	> 100			
CCOC(=O)C12CCCC1(O)N(NC(=O)c1ccccc1)C(C)=C2C(=O)OC (stereo not given)			> 100	> 100	> 100	> 100		
COC(=O)C1=C2CCC(=O)[C@@]2(C)C(OC(C)=O)C=CC1 (stereo not given in full)	> 100	> 100		> 100	> 100	> 100	92.9	TGI (RXF-631 renal): 54 µM
COc1cccc(C2c3cc4c(cc3OC(C)(O)C2C)OCO4)c1O (stereo not given)								TGI (MDA-N): 4.69 µM
CC1CC2(C)ON=C(c3ccccc3)N2c2ccccc2S1 (stereo not given)								GI50 (MDA-N): 34.2 µM
C=C1C(=O)O[C@@H]2C[C@@]3(C)CCC[C@H](C)C3=C[C@H]12								TGI (MDA-N): 16.6 µM
COc1ccc(CCN2C(=O)C=CC2=O)cc1OC								TGI (MDA-N): 33.5 µM
O=C(O)C(CP(=O)(O)O)=C(Cl)Cl			> 100	> 100	> 100	> 100	> 100	
CC(=O)OC(/C=C1/C=CC(=O)O1)COC(=O)c1ccccc1 (stereo not given)	> 31.2	> 31.2	> 31.2	> 31.2	> 31.2	> 31.2	> 31.2	
COc1ccc2c(=O)c(C)c(-c3ccccc3)oc2c1CN(C)C	> 100	> 100	> 100	> 100	> 100	> 100	> 100	GI50 (M19-MEL melanoma): > 100 µM and 42.4 µM
Cc1ccc(NC(=O)CCC(CC(=O)C(C)(C)C)=NNC(=O)C(=O)NN)cc1C	> 100		> 100	> 100	> 100		> 100	
CCC[CH2][Sn]1([CH2]CCC)[O]C(=O)c2cc(I)cc(I)c2[O]1	2.42	1.19	3.03	1.33	2.19	2.37		GI50 (DLD-1 colon): 1.15 µM; GI50 (DMS 114 small cell lung): 0.303 µM; GI50 (HOP-18 NSCLC): 1.62 µM; GI50 (LXFL 529 NSCLC): 0.247 µM; GI50 (M19-MEL melanoma): 1 µM; GI50 (SNB-78 CNS): 0.536 µM
COC(=O)/C=C1/CCC2[C@@H](C(=O)CC3[C@]2(C)CCC[C@@]3(C)C(=O)OC)C1C (stereo not given in full)	37.1	24.8	27.5	20.8	31.2	40.5	30.3	TGI (RXF-631 renal): 30.9 µM
CCOC(C)C(/C=N/NC(N)=S)=NNC(N)=S (stereo not given)	> 100			> 100	> 100	> 100		
COc1cc(/C=C2\[C@H]3c4c(c(OC)c(C)c(OC)c4OC)C[C@@H](C(=O)N2Cc2ccccc2)N3C(=O)OCC(C)C)c(OC)c(C)c1OC	> 100		> 100	> 100	> 100		> 100	
C/C(=C\C(C)COCc1ccccc1)[C@H](COCc1ccccc1)OCc1ccccc1 (stereo not given in full)		> 100		> 100	> 100	> 100	> 100	TGI (RXF-631 renal): > 100 µM
O=S(=O)(/C=C/c1ccc(Cl)cc1Cl)Cc1ccccc1CS(=O)(=O)/C=C/c1ccc(Cl)cc1Cl	> 100	> 100		> 100	> 100	> 100	> 100	
